Experimental data taken from patent US7838230B2 (priority 2004, dated 2010).

Experiments:
[1] = molecular target: T1, topoisomerase IV (Escherichia coli, UniProt P0AFI2+P20083); assay: Topoisomerase IV relaxation, microplate assay; type: biochemical
[2] = molecular target: T1, topoisomerase IV; assay: Topoisomerase IV relaxation, gel electrophoresis assay; type: biochemical

T1 sequence (P20083 whole entry): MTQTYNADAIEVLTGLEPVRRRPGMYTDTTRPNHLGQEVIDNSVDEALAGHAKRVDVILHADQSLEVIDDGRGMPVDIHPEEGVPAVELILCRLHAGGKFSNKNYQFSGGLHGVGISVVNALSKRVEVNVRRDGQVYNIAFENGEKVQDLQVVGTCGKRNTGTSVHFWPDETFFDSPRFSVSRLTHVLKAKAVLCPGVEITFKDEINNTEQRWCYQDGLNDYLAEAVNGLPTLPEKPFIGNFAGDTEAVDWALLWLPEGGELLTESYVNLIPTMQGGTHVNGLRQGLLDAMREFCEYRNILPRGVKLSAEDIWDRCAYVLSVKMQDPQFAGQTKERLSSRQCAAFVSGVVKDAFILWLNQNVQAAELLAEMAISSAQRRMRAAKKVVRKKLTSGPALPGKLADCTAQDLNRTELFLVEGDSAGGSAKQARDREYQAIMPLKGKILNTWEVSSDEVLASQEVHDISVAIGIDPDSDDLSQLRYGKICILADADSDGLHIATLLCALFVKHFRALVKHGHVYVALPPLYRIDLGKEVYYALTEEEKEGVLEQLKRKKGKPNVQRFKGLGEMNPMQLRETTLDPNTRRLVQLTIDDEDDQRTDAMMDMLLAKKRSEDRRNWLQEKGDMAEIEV
T1 sequence (P0AFI2 whole entry): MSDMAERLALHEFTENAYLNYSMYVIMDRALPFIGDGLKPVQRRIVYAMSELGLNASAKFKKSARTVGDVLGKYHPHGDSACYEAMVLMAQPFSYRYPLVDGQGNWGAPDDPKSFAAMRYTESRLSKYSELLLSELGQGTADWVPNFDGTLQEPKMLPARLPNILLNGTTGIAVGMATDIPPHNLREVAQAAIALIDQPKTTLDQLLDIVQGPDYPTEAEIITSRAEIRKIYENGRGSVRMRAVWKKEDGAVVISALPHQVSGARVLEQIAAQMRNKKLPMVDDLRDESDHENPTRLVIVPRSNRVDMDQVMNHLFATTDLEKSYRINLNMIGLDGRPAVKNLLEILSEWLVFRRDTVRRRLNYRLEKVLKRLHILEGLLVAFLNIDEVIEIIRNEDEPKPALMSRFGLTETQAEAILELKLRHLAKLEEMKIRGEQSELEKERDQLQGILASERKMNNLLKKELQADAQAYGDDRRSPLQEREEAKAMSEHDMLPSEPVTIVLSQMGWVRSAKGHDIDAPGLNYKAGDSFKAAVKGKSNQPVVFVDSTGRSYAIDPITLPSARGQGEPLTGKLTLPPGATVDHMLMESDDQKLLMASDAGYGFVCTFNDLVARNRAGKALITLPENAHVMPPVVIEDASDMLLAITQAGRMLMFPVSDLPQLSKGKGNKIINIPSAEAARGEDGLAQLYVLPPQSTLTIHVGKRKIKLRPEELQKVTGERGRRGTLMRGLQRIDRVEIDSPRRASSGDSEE

Structure (SMILES) | IC50 ([1]; supercoiled pNO1 substrate, plate assay, read-out: Topo IV Relaxation IC50 Plate assay) [µM] | IC50 ([2]; supercoiled pNO1 substrate, gel assay, read-out: Topo IV Relaxation IC50 Gel assay) [µM] | IC50 [1] [µM] | IC50 [2] [µM]
CO[C@@H]1[C@@H](OC(=O)c2ccc(C)[nH]2)[C@@H](O)[C@H](Oc2ccc3c(O)c(NC(=O)c4ccc(O)c(CC=C(C)C)c4)c(=O)oc3c2Cl)OC1(C)C [Chlorbiocin] | 0.32 | 0.14 | – | –
CCn1cc(C(=O)O)c(=O)c2ccc(C)nc21 [Naladixic acid] | – | – | 88.4 | 36.3
